How the values were obtained:
Experiment in all cases: Ba/F3 drug screening, Cell Titer Glo, IC50 Mut/WT
Format in all cases: cell-based
[1] = biological target: T1, EGFR E709K L858R (Homo sapiens, UniProt P00533, E709K/L858R); conditions: Classical-Like, 72 hours
T1 construct: expressed in transfected cells; host or cells: Ba/F3 cells, retroviral pBabe-Puro vector

[2] = biological target: T2, EGFR L833F (Homo sapiens, UniProt P00533, L833F); conditions: Classical-Like, 72 hours
T2 construct: expressed in transfected cells; host or cells: Ba/F3 cells, retroviral pBabe-Puro vector
Description: (§1) Data represent the ratio of the IC50 value for a given TKI for cells with a classical-like EGFR mutation to the IC50 value for cells with wildtype EGFR.
(§2) Ba/F3 cell generation, drug screening, and IC50 approximations. Ba/F3 cells were obtained as a gift from Dr. Gordon Mills (MD Anderson Cancer Center), and maintained in RPMI (Sigma) containing 10% FBS, 1% penicillin/streptomycin, and 10 ng/ml recombinant mIL-3 (R&D Biosystems). To establish stable Ba/F3 cell lines, Ba/F3 cells were transduced with retroviruses containing mutant EGFR plasmids for 12-24 hours.
(§3) After 48-72 hours of transduction, 2 μg/ml puromycin (Invitrogen) was added to Ba/F3 cell lines in complete RPMI. To select for EGFR positive cell lines, cells were stained with PE-EGFR (Biolegend) and sorted by FACS. After sorting, EGFR positive cells were maintained in RPMI containing 10% FBS, 1% penicillin/streptomycin, and 1 ng/ml EGF to support cell viability. […] Shortly, cells were plated in 384-well plates (Greiner Bio-One) at 2000-3000 cells per well in technical triplicate. Seven different concentrations of TKIs or DMSO vehicle were added to reach a final volume of 40 μL per well. After 72 hours, 11 μL of Cell Titer Glo (Promega) was added to each well. Plates were incubated for a minimum of 10 minutes, and bioluminescence was determined using a FLUOstar OPTIMA plate reader (BMG LABTECH). Raw bioluminescence values were normalized to DMSO control treated cells, and values were plotted in GraphPad Prism. […] Drug screens were performed in technical triplicate on each plate and either duplicate or triplicate biological replicates.

[3] = biological target: T3, EGFR L858R/V834L (Homo sapiens, UniProt P00533, L858R/V834L); conditions: Classical-Like, 72 hours
T3 construct: expressed in transfected cells; host or cells: Ba/F3 cells, retroviral pBabe-Puro vector

[4] = biological target: T4, EGFR L858R (Homo sapiens, UniProt P00533, L858R); conditions: Classical-Like, 72 hours
T4 construct: expressed in transfected cells; host or cells: Ba/F3 cells, retroviral pBabe-Puro vector

[5] = biological target: T5, EGFR L858R S784F (Homo sapiens, UniProt P00533, L858R/S784F); conditions: Classical-Like, 72 hours
T5 construct: expressed in transfected cells; host or cells: Ba/F3 cells, retroviral pBabe-Puro vector (vector made by GeneScript from EGFR L858R)
Description: as §1, §2, §3

[6] = biological target: T6, EGFR S720P (Homo sapiens, UniProt P00533, S720P); conditions: Classical-Like, 72 hours
T6 construct: expressed in transfected cells; host or cells: Ba/F3 cells, retroviral pBabe-Puro vector (vector made by GeneScript from EGFR WT)

[7] = biological target: T7, EGFR T725M (Homo sapiens, UniProt P00533, T725M); conditions: Classical-Like, 72 hours
T7 construct: expressed in transfected cells; host or cells: Ba/F3 cells, retroviral pBabe-Puro vector (vector made by GeneScript from EGFR WT)

[8] = biological target: T8, EGFR L861R (Homo sapiens, UniProt P00533, L861R); conditions: Classical-Like, 72 hours
T8 construct: expressed in transfected cells; host or cells: Ba/F3 cells, retroviral pBabe-Puro vector (vector made by GeneScript from EGFR WT)

[9] = biological target: T9, EGFR A763insFQEA (Homo sapiens, UniProt P00533, INS763FQEA); conditions: Classical-Like, 72 hours
T9 construct: expressed in transfected cells; host or cells: Ba/F3 cells, retroviral pBabe-Puro vector
Description: as §1, §2, §3

[10] = biological target: T10, EGFR A767insASV (Homo sapiens, UniProt P00533, DUP767-769); conditions: Ex20, 72 hours
T10 construct: expressed in transfected cells; host or cells: Ba/F3 cells, retroviral pBabe-Puro vector

[11] = biological target: T11, EGFR S768dupSVD (Homo sapiens, UniProt P00533, DUP768-770); conditions: Ex20, 72 hours
T11 construct: expressed in transfected cells; host or cells: Ba/F3 cells, retroviral pBabe-Puro vector
Description: (§4) Data represent the ratio of the IC50 value for a given TKI for cells with an ex20ins EGFR mutation to the IC50 value for cells with wildtype EGFR.
as §2
(§5) After 48-72 hours of transduction, 2 μg/ml puromycin (Invitrogen) was added to Ba/F3 cell lines in complete RPMI. To select for EGFR positive cell lines, cells were stained with PE-EGFR (Biolegend) and sorted by FACS. After sorting, EGFR positive cells were maintained in RPMI containing 10% FBS, 1% penicillin/streptomycin, and 1 ng/ml EGF to support cell viability. Drug screening was performed as previously described^41,42. Shortly, cells were plated in 384-well plates (Greiner Bio-One) at 2000-3000 cells per well in technical triplicate. Seven different concentrations of TKIs or DMSO vehicle were added to reach a final volume of 40 μL per well. After 72 hours, 11 μL of Cell Titer Glo (Promega) was added to each well. Plates were incubated for a minimum of 10 minutes, and bioluminescence was determined using a FLUOstar OPTIMA plate reader (BMG LABTECH). Raw bioluminescence values were normalized to DMSO control treated cells, and values were plotted in GraphPad Prism. […] Drug screens were performed in technical triplicate on each plate and either duplicate or triplicate biological replicates. […] Statistical differences between groups were determined by ANOVA as described in the figure legends.

[12] = biological target: T12, EGFR D770insNPG (Homo sapiens, UniProt P00533, INS770NPG); conditions: Ex20, 72 hours
T12 construct: expressed in transfected cells; host or cells: Ba/F3 cells, retroviral pBabe-Puro vector

[13] = biological target: T13, EGFR H773insNPH (Homo sapiens, UniProt P00533, INS773NPH); conditions: Ex20, 72 hours
T13 construct: expressed in transfected cells; host or cells: Ba/F3 cells, retroviral pBabe-Puro vector
Description: as §4, §2, §5

[14] = biological target: T14, EGFR L747_K754del insATSPE (Homo sapiens, UniProt P00533, DEL747-749/K754E); conditions: T790M-like-3S, 72 hours
T14 construct: expressed in transfected cells; host or cells: Ba/F3 cells, retroviral pBabe-Puro vector
Description: (§6) Data represent the ratio of the IC50 value for a given TKI for cells with a T790M-like-3S EGFR mutation to the IC50 value for cells with wildtype EGFR.
as §2
(§7) After 48-72 hours of transduction, 2 μg/ml puromycin (Invitrogen) was added to Ba/F3 cell lines in complete RPMI. To select for EGFR positive cell lines, cells were stained with PE-EGFR (Biolegend) and sorted by FACS. After sorting, EGFR positive cells were maintained in RPMI containing 10% FBS, 1% penicillin/streptomycin, and 1 ng/ml EGF to support cell viability. Drug screening was performed as previously described^41,42. Shortly, cells were plated in 384-well plates (Greiner Bio-One) at 2000-3000 cells per well in technical triplicate. Seven different concentrations of TKIs or DMSO vehicle were added to reach a final volume of 40 μL per well. After 72 hours, 11 μL of Cell Titer Glo (Promega) was added to each well. Plates were incubated for a minimum of 10 minutes, and bioluminescence was determined using a FLUOstar OPTIMA plate reader (BMG LABTECH). Raw bioluminescence values were normalized to DMSO control treated cells, and values were plotted in GraphPad Prism. […] Drug screens were performed in technical triplicate on each plate and either duplicate or triplicate biological replicates.

[15] = biological target: T15, EGFR Ex19del T790M (Homo sapiens, UniProt P00533, DEL746-750/T790M); conditions: T790M-like-3S, 72 hours
T15 construct: expressed in transfected cells; host or cells: Ba/F3
Description: as §6, §2, §7

[16] = biological target: T16, EGFR Ex19del/T790M/G724S (Homo sapiens, UniProt P00533, DEL746-750/G724S/T790M); conditions: T790M-like-3S, 72 hours
T16 construct: expressed in transfected cells; host or cells: Ba/F3

[17] = biological target: T17, EGFR L718Q T790M (Homo sapiens, UniProt P00533, L718Q/T790M); conditions: T790M-like-3R, 72 hours
T17 construct: expressed in transfected cells; host or cells: Ba/F3
Description: (§8) Data represent the ratio of the IC50 value for a given TKI for cells with a T790M-like-3R EGFR mutation to the IC50 value for cells with wildtype EGFR.
as §2
(§9) After 48-72 hours of transduction, 2 μg/ml puromycin (Invitrogen) was added to Ba/F3 cell lines in complete RPMI. To select for EGFR positive cell lines, cells were stained with PE-EGFR (Biolegend) and sorted by FACS. After sorting, EGFR positive cells were maintained in RPMI containing 10% FBS, 1% penicillin/streptomycin, and 1 ng/ml EGF to support cell viability. […] Shortly, cells were plated in 384-well plates (Greiner Bio-One) at 2000-3000 cells per well in technical triplicate. Seven different concentrations of TKIs or DMSO vehicle were added to reach a final volume of 40 μL per well. After 72 hours, 11 μL of Cell Titer Glo (Promega) was added to each well. Plates were incubated for a minimum of 10 minutes, and bioluminescence was determined using a FLUOstar OPTIMA plate reader (BMG LABTECH). Raw bioluminescence values were normalized to DMSO control treated cells, and values were plotted in GraphPad Prism. […] Drug screens were performed in technical triplicate on each plate and either duplicate or triplicate biological replicates. […] Statistical differences between groups were determined by ANOVA as described in the figure legends.

[18] = biological target: T18, EGFR L858R/T790M/L718Q (Homo sapiens, UniProt P00533, L718Q/L858R/T790M); conditions: T790M-like-3R, 72 hours
T18 construct: expressed in transfected cells; host or cells: Ba/F3

[19] = biological target: T19, EGFR L858R/T790M/C797S (Homo sapiens, UniProt P00533, C797S/L858R/T790M); conditions: T790M-like-3R, 72 hours
T19 construct: expressed in transfected cells; host or cells: Ba/F3
Description: as §8, §2, §9

[20] = biological target: T20, EGFR Ex19del T790M C797S (Homo sapiens, UniProt P00533, C797S/DEL746-750/T790M); conditions: T790M-like-3R, 72 hours
T20 construct: expressed in transfected cells; host or cells: Ba/F3

[21] = biological target: T21, EGFR L747S (Homo sapiens, UniProt P00533, L747S); conditions: Ba/F3 cells, EGFR L747S (PACC), Mut/WT
T21 construct: expressed in transfected cells; host or cells: Ba/F3
Description: (§10) Data represent the ratio of the IC50 value for a given TKI for cells with a PACC EGFR mutation to the IC50 value for cells with wildtype EGFR.
as §2, §7

[22] = biological target: T22, EGFR R776H (Homo sapiens, UniProt P00533, R776H); conditions: Ba/F3 cells, EGFR R776H (PACC), Mut/WT
T22 construct: host or cells: Ba/F3

[23] = biological target: T23, EGFR Ex19del G724S (Homo sapiens, UniProt P00533, DEL746-750/G724S); conditions: Ba/F3 cells, EGFR Ex19del G724S (PACC), Mut/WT
T23 construct: expressed in transfected cells; host or cells: Ba/F3

[24] = biological target: T24, EGFR Ex19del G796S (Homo sapiens, UniProt P00533, DEL746-750/G796S); conditions: Ba/F3 cells, EGFR Ex19del G796S (PACC), Mut/WT
T24 construct: expressed in transfected cells; host or cells: Ba/F3

[25] = biological target: T25, EGFR Ex19del/C797S (Homo sapiens, UniProt P00533, C797S/DEL746-750); conditions: Ba/F3 cells, EGFR Ex19del/C797S (PACC), Mut/WT
T25 construct: expressed in transfected cells; host or cells: Ba/F3

[26] = biological target: T26, EGFR Ex19del L718V (Homo sapiens, UniProt P00533, DEL746-750/L718V); conditions: Ba/F3 cells, EGFR Ex19del L718V (PACC), Mut/WT
T26 construct: expressed in transfected cells; host or cells: Ba/F3
Description: as §10, §2, §7

[27] = biological target: T27, EGFR Ex19del T854I (Homo sapiens, UniProt P00533, DEL746-750/T854I); conditions: Ba/F3 cells, EGFR Ex19del T854I (PACC), Mut/WT
T27 construct: expressed in transfected cells; host or cells: Ba/F3 (retroviral transduction, pBabe-Puro based vectors)
Description: as §10, §2, §7

ratio of IC50 for cells with mutant EGFR to IC50 for cells with wildtype EGFR (Mut/WT) [1]	ratio of IC50 for cells with mutant EGFR to IC50 for cells with wildtype EGFR (Mut/WT) [2]	ratio of IC50 for cells with mutant EGFR to IC50 for cells with wildtype EGFR (Mut/WT) [3]	ratio of IC50 for cells with mutant EGFR to IC50 for cells with wildtype EGFR (Mut/WT) [4]	ratio of IC50 for cells with mutant EGFR to IC50 for cells with wildtype EGFR (Mut/WT) [5]	ratio of IC50 for cells with mutant EGFR to IC50 for cells with wildtype EGFR (Mut/WT) [6]	ratio of IC50 for cells with mutant EGFR to IC50 for cells with wildtype EGFR (Mut/WT) [7]	ratio of IC50 for cells with mutant EGFR to IC50 for cells with wildtype EGFR (Mut/WT) [8]	ratio of IC50 for cells with mutant EGFR to IC50 for cells with wildtype EGFR (Mut/WT) [9]	ratio of IC50 for cells with mutant EGFR to IC50 for cells with wildtype EGFR (Mut/WT) [10]	ratio of IC50 for cells with mutant EGFR to IC50 for cells with wildtype EGFR (Mut/WT) [11]	ratio of IC50 for cells with mutant EGFR to IC50 for cells with wildtype EGFR (Mut/WT) [12]	ratio of IC50 for cells with mutant EGFR to IC50 for cells with wildtype EGFR (Mut/WT) [13]	ratio of IC50 for cells with mutant EGFR to IC50 for cells with wildtype EGFR (Mut/WT) [14]	ratio of IC50 for cells with mutant EGFR to IC50 for cells with wildtype EGFR (Mut/WT) [15]	ratio of IC50 for cells with mutant EGFR to IC50 for cells with wildtype EGFR (Mut/WT) [16]	ratio of IC50 for cells with mutant EGFR to IC50 for cells with wildtype EGFR (Mut/WT) [17]	ratio of IC50 for cells with mutant EGFR to IC50 for cells with wildtype EGFR (Mut/WT) [18]	ratio of IC50 for cells with mutant EGFR to IC50 for cells with wildtype EGFR (Mut/WT) [19]	ratio of IC50 for cells with mutant EGFR to IC50 for cells with wildtype EGFR (Mut/WT) [20]	SMILES	other results
0.0818	0.03054	0.05339	0.07863	0.1921	0.03397	0.5761	0.09054	0.1912	1.61	1.135	1.296	1.077	0.00433	0.009604	0.02849	1.576	0.6815	32.29	14.64	C=CC(=O)N1CC[C@@H](Oc2nc(Nc3ccc(N4CCC(N5CCN(C)CC5)CC4)cc3)c(C(N)=O)nc2CC)C1 [Naquotinib]	ratio of the IC50 value for cells with a PACC EGFR mutation to the IC50 value for cells with wildtype EGFR [21]: 0.8911; ratio of the IC50 value for cells with a PACC EGFR mutation to the IC50 value for cells with wildtype EGFR [22]: 0.5095; ratio of the IC50 value for cells with a PACC EGFR mutation to the IC50 value for cells with wildtype EGFR [23]: 0.8866; ratio of the IC50 value for cells with a PACC EGFR mutation to the IC50 value for cells with wildtype EGFR [24]: 1.137; ratio of the IC50 value for cells with a PACC EGFR mutation to the IC50 value for cells with wildtype EGFR [25]: 11.45; ratio of the IC50 value for cells with a PACC EGFR mutation to the IC50 value for cells with wildtype EGFR [26]: 0.1035; ratio of the IC50 value for cells with a PACC EGFR mutation to the IC50 value for cells with wildtype EGFR [27]: 1.06
0.01992	0.0584	0.01123	0.017	0.03577	0.005619	0.04541	0.01121	0.05676	0.6382	0.4008	0.529	0.4242	0.001195	0.01265	0.06117	0.317	0.7714	2.649	5.557	Cc1cc(C(=O)Nc2nc3cccc(Cl)c3n2[C@@H]2CCCCN(C(=O)/C=C/CN(C)C)C2)ccn1 [Nazartinib]	ratio of the IC50 value for cells with a PACC EGFR mutation to the IC50 value for cells with wildtype EGFR [21]: 0.06302; ratio of the IC50 value for cells with a PACC EGFR mutation to the IC50 value for cells with wildtype EGFR [22]: 0.03601; ratio of the IC50 value for cells with a PACC EGFR mutation to the IC50 value for cells with wildtype EGFR [23]: 1.068; ratio of the IC50 value for cells with a PACC EGFR mutation to the IC50 value for cells with wildtype EGFR [24]: 0.6604; ratio of the IC50 value for cells with a PACC EGFR mutation to the IC50 value for cells with wildtype EGFR [25]: 3.067; ratio of the IC50 value for cells with a PACC EGFR mutation to the IC50 value for cells with wildtype EGFR [26]: 0.04632; ratio of the IC50 value for cells with a PACC EGFR mutation to the IC50 value for cells with wildtype EGFR [27]: 1.135
0.01609	0.1289	0.006716	0.01716	0.04569	0.003331	0.03664	0.02937	0.02753	0.6792	0.5533	0.31	0.4274	0.0001357	0.0004059	0.005075	0.3579	0.6196	4.111	1.926	C=CC(=O)Nc1cccc(Oc2nc(Nc3ccc(N4CCN(C)CC4)cc3)nc3ccsc23)c1 [Olmutinib]	ratio of the IC50 value for cells with a PACC EGFR mutation to the IC50 value for cells with wildtype EGFR [21]: 0.06291; ratio of the IC50 value for cells with a PACC EGFR mutation to the IC50 value for cells with wildtype EGFR [22]: 0.1146; ratio of the IC50 value for cells with a PACC EGFR mutation to the IC50 value for cells with wildtype EGFR [23]: 0.268; ratio of the IC50 value for cells with a PACC EGFR mutation to the IC50 value for cells with wildtype EGFR [24]: 0.8234; ratio of the IC50 value for cells with a PACC EGFR mutation to the IC50 value for cells with wildtype EGFR [25]: 2.14; ratio of the IC50 value for cells with a PACC EGFR mutation to the IC50 value for cells with wildtype EGFR [26]: 0.0862; ratio of the IC50 value for cells with a PACC EGFR mutation to the IC50 value for cells with wildtype EGFR [27]: 1.31

Source: patent US20240384350A1, “METHODS OF TREATING CANCER WITH KINASE INHIBITORS” (BOARD OF REGENTS, THE UNIVERSITY OF TEXAS SYSTEM, priority 2021, published 2024)
